Measurements reported in publication PMC8885417, “Pharmacological targeting of MTHFD2 suppresses acute myeloid leukemia by inducing thymidine depletion and replication stress” (Nature Cancer, 2022).
Where two headings read alike, the source gives them in different places.

Key:
MTHFD1-(DC) = target: T1, MTHFD1-(DC) (Homo sapiens, UniProt P11586); assay: biochemical activity assay
T1 construct: dehydrogenase/cyclohydrolase (DC) domain

MTHFD2L = MTHFD2L (Homo sapiens, UniProt Q9H903); assay: biochemical activity assay
Adenosine A2A = target: T2, Adenosine A2A (Homo sapiens, UniProt P29274); assay: biochemical; parameters: Eurofins SafetyScreen44 panel of binding and enzyme assays, mean per cent inhibition of duplicate; conditions: read-out: Inhibition (%) at 10 µM TH9619
T2 construct: gene ADORA2A
Source text: (§1) Bars represent the mean change in protein melting temperature (ΔTm) of one experiment performed in triplicate. […] Bars represent mean inhibition in percentage of one experiment performed in duplicate.

Adrenergic ß1 = target: T3, Adrenergic ß1 (Homo sapiens, UniProt P08588); assay: biochemical; parameters: Eurofins SafetyScreen44 panel of binding and enzyme assays, mean per cent inhibition of duplicate; conditions: read-out: Inhibition (%) at 10 µM TH9619
T3 construct: gene ADRB1
Source text: as §1

Adrenergic ß2 = target: T4, Adrenergic ß2 (Homo sapiens, UniProt P07550); assay: biochemical; parameters: Eurofins SafetyScreen44 panel of binding and enzyme assays, mean per cent inhibition of duplicate; conditions: read-out: Inhibition (%) at 10 µM TH9619
T4 construct: gene ADRB2
Source text: as §1

Adrenergic α1A = target: T5, Adrenergic α1A (Homo sapiens, UniProt P35348); assay: biochemical; parameters: Eurofins SafetyScreen44 panel of binding and enzyme assays, mean per cent inhibition of duplicate; conditions: read-out: Inhibition (%) at 10 µM TH9619
T5 construct: gene ADRA1A
Source text: as §1

Adrenergic α2A = target: T6, Adrenergic α2A (Homo sapiens, UniProt P08913); assay: biochemical; parameters: Eurofins SafetyScreen44 panel of binding and enzyme assays, mean per cent inhibition of duplicate; conditions: read-out: Inhibition (%) at 10 µM TH9619
T6 construct: gene ADRA2A
Source text: as §1

Androgen (Testosterone) = target: T7, Androgen (Testosterone) (Homo sapiens, UniProt P10275); assay: biochemical; parameters: Eurofins SafetyScreen44 panel of binding and enzyme assays, mean per cent inhibition of duplicate; conditions: read-out: Inhibition (%) at 10 µM TH9619
T7 construct: gene AR
Source text: as §1

Cannabinoid CB1 = target: T8, Cannabinoid CB1 (Homo sapiens, UniProt P21554); assay: biochemical; parameters: Eurofins SafetyScreen44 panel of binding and enzyme assays, mean per cent inhibition of duplicate; conditions: read-out: Inhibition (%) at 10 µM TH9619
T8 construct: gene CNR1
Source text: as §1

Cannabinoid CB2 = target: T9, Cannabinoid CB2 (Homo sapiens, UniProt P34972); assay: biochemical; parameters: Eurofins SafetyScreen44 panel of binding and enzyme assays, mean per cent inhibition of duplicate; conditions: read-out: Inhibition (%) at 10 µM TH9619
T9 construct: gene CNR2
Source text: as §1

[1] = target: T10, Cholecystokinin CCK1 (CCKA) (Homo sapiens, UniProt P32238); assay: biochemical; parameters: Eurofins SafetyScreen44 panel of binding and enzyme assays, mean per cent inhibition of duplicate; conditions: read-out: Inhibition (%) at 10 µM TH9619
T10 construct: gene CCKAR
Source text: as §1

[2] = target: T11, Cholinesterase,Acetyl, ACES (Homo sapiens, UniProt P22303); assay: biochemical; parameters: Eurofins SafetyScreen44 panel of binding and enzyme assays, mean per cent inhibition of duplicate; conditions: read-out: Inhibition (%) at 10 µM TH9619
T11 construct: gene ACHE
Source text: as §1

Cyclooxygenase COX-1 = target: T12, Cyclooxygenase COX-1 (Homo sapiens, UniProt P23219); assay: biochemical; parameters: Eurofins SafetyScreen44 panel of binding and enzyme assays, mean per cent inhibition of duplicate; conditions: read-out: Inhibition (%) at 10 µM TH9619
T12 construct: gene PTGS1
Source text: as §1

Cyclooxygenase COX-2 = target: T13, Cyclooxygenase COX-2 (Homo sapiens, UniProt P35354); assay: biochemical; parameters: Eurofins SafetyScreen44 panel of binding and enzyme assays, mean per cent inhibition of duplicate; conditions: read-out: Inhibition (%) at 10 µM TH9619
T13 construct: gene PTGS2
Source text: as §1

Dopamine D1 = target: T14, Dopamine D1 (Homo sapiens, UniProt P21728); assay: biochemical; parameters: Eurofins SafetyScreen44 panel of binding and enzyme assays, mean per cent inhibition of duplicate; conditions: read-out: Inhibition (%) at 10 µM TH9619
T14 construct: gene DRD1
Source text: as §1

Dopamine D2S = target: T15, Dopamine D2S (Homo sapiens, UniProt P14416); assay: biochemical; parameters: Eurofins SafetyScreen44 panel of binding and enzyme assays, mean per cent inhibition of duplicate; conditions: read-out: Inhibition (%) at 10 µM TH9619
T15 construct: gene DRD2; isoform D2S (short)
Source text: as §1

Endothelin ETA = target: T16, Endothelin ETA (Homo sapiens, UniProt P25101); assay: biochemical; parameters: Eurofins SafetyScreen44 panel of binding and enzyme assays, mean per cent inhibition of duplicate; conditions: read-out: Inhibition (%) at 10 µM TH9619
T16 construct: gene EDNRA
Source text: as §1

Glucocorticoid = target: T17, Glucocorticoid (Homo sapiens, UniProt P04150); assay: biochemical; parameters: Eurofins SafetyScreen44 panel of binding and enzyme assays, mean per cent inhibition of duplicate; conditions: read-out: Inhibition (%) at 10 µM TH9619
T17 construct: gene NR3C1
Source text: as §1

Histamine H1 = target: T18, Histamine H1 (Homo sapiens, UniProt P35367); assay: biochemical; parameters: Eurofins SafetyScreen44 panel of binding and enzyme assays, mean per cent inhibition of duplicate; conditions: read-out: Inhibition (%) at 10 µM TH9619
T18 construct: gene HRH1
Source text: as §1

Histamine H2 = target: T19, Histamine H2 (Homo sapiens, UniProt P25021); assay: biochemical; parameters: Eurofins SafetyScreen44 panel of binding and enzyme assays, mean per cent inhibition of duplicate; conditions: read-out: Inhibition (%) at 10 µM TH9619
T19 construct: gene HRH2
Source text: as §1

Monoamine Oxidase MAO-A = target: T20, Monoamine Oxidase MAO-A (Homo sapiens, UniProt P21397); assay: biochemical; parameters: Eurofins SafetyScreen44 panel of binding and enzyme assays, mean per cent inhibition of duplicate; conditions: read-out: Inhibition (%) at 10 µM TH9619
T20 construct: gene MAOA
Source text: as §1

Muscarinic M1 = target: T21, Muscarinic M1 (Homo sapiens, UniProt P11229); assay: biochemical; parameters: Eurofins SafetyScreen44 panel of binding and enzyme assays, mean per cent inhibition of duplicate; conditions: read-out: Inhibition (%) at 10 µM TH9619
T21 construct: gene CHRM1
Source text: as §1

Muscarinic M2 = target: T22, Muscarinic M2 (Homo sapiens, UniProt P08172); assay: biochemical; parameters: Eurofins SafetyScreen44 panel of binding and enzyme assays, mean per cent inhibition of duplicate; conditions: read-out: Inhibition (%) at 10 µM TH9619
T22 construct: gene CHRM2
Source text: as §1

Muscarinic M3 = target: T23, Muscarinic M3 (Homo sapiens, UniProt P20309); assay: biochemical; parameters: Eurofins SafetyScreen44 panel of binding and enzyme assays, mean per cent inhibition of duplicate; conditions: read-out: Inhibition (%) at 10 µM TH9619
T23 construct: gene CHRM3
Source text: as §1

[3] = target: T24, Nicotinic Acetylcholine a4ß2, Cytisine (Homo sapiens, UniProt P17787+P43681); assay: biochemical; parameters: Eurofins SafetyScreen44 panel of binding and enzyme assays, mean per cent inhibition of duplicate; conditions: read-out: Inhibition (%) at 10 µM TH9619
T24 construct: gene CHRNB2; cytisine site
Source text: as §1

Opiate µ (OP3, MOP) = target: T25, Opiate µ (OP3, MOP) (Homo sapiens, UniProt P35372); assay: biochemical; parameters: Eurofins SafetyScreen44 panel of binding and enzyme assays, mean per cent inhibition of duplicate; conditions: read-out: Inhibition (%) at 10 µM TH9619
T25 construct: gene OPRM1
Source text: as §1

Opiate κ (OP2, KOP) = target: T26, Opiate κ (OP2, KOP) (Homo sapiens, UniProt P41145); assay: biochemical; parameters: Eurofins SafetyScreen44 panel of binding and enzyme assays, mean per cent inhibition of duplicate; conditions: read-out: Inhibition (%) at 10 µM TH9619
T26 construct: gene OPRK1
Source text: as §1

Phosphodiesterase PDE3A = Phosphodiesterase PDE3A (Homo sapiens, UniProt Q14432); assay: biochemical; parameters: Eurofins SafetyScreen44 panel of binding and enzyme assays, mean per cent inhibition of duplicate; conditions: read-out: Inhibition (%) at 10 µM TH9619
Source text: as §1

Phosphodiesterase PDE4D2 = target: T27, Phosphodiesterase PDE4D2 (Homo sapiens, UniProt Q08499); assay: biochemical; parameters: Eurofins SafetyScreen44 panel of binding and enzyme assays, mean per cent inhibition of duplicate; conditions: read-out: Inhibition (%) at 10 µM TH9619
T27 construct: gene PDE4D; isoform PDE4D2
Source text: as §1

[4] = target: T28, Potassium Channel hERG, [3H]Dofetilide (Homo sapiens, UniProt Q12809); assay: in vitro; parameters: Eurofins SafetyScreen44 panel of binding and enzyme assays, mean per cent inhibition of duplicate
T28 construct: gene KCNH2; dofetilide site
Source text: as §1

[5] = target: Protein Tyrosine Kinase, LCK (Homo sapiens, UniProt P06239); assay: biochemical; parameters: Eurofins SafetyScreen44 panel of binding and enzyme assays, mean per cent inhibition of duplicate; conditions: read-out: Inhibition (%) at 10 µM TH9619
Source text: as §1

[6] = target: T29, Serotonin (5-Hydroxytryptamine) 5-HT1A (Homo sapiens, UniProt P08908); assay: biochemical; parameters: Eurofins SafetyScreen44 panel of binding and enzyme assays, mean per cent inhibition of duplicate; conditions: read-out: Inhibition (%) at 10 µM TH9619
T29 construct: gene HTR1A
Source text: as §1

[7] = target: T30, Serotonin (5-Hydroxytryptamine) 5-HT1B (Homo sapiens, UniProt P28222); assay: biochemical; parameters: Eurofins SafetyScreen44 panel of binding and enzyme assays, mean per cent inhibition of duplicate; conditions: read-out: Inhibition (%) at 10 µM TH9619
T30 construct: gene HTR1B
Source text: as §1

[8] = target: T31, Serotonin (5-Hydroxytryptamine) 5-HT2B (Homo sapiens, UniProt P41595); assay: biochemical; parameters: Eurofins SafetyScreen44 panel of binding and enzyme assays, mean per cent inhibition of duplicate; conditions: read-out: Inhibition (%) at 10 µM TH9619
T31 construct: gene HTR2B
Source text: as §1

[9] = target: T32, Serotonin (5-Hydroxytryptamine) 5-HT3 (Homo sapiens, UniProt P46098); assay: biochemical; parameters: Eurofins SafetyScreen44 panel of binding and enzyme assays, mean per cent inhibition of duplicate; conditions: read-out: Inhibition (%) at 10 µM TH9619
T32 construct: gene HTR3A
Source text: as §1

[10] = target: T33, Transporter, Dopamine (DAT) (Homo sapiens, UniProt Q01959); assay: biochemical; parameters: Eurofins SafetyScreen44 panel of binding and enzyme assays, mean per cent inhibition of duplicate; conditions: read-out: Inhibition (%) at 10 µM TH9619
T33 construct: gene SLC6A3
Source text: as §1

[11] = target: T34, Transporter, Norepinephrine (NET) (Homo sapiens, UniProt P23975); assay: biochemical; parameters: Eurofins SafetyScreen44 panel of binding and enzyme assays, mean per cent inhibition of duplicate; conditions: read-out: Inhibition (%) at 10 µM TH9619
T34 construct: gene SLC6A2
Source text: as §1

[12] = target: T35, Transporter, Serotonin (5-Hydroxytryptamine) (SERT) (Homo sapiens, UniProt P31645); assay: biochemical; parameters: Eurofins SafetyScreen44 panel of binding and enzyme assays, mean per cent inhibition of duplicate; conditions: read-out: Inhibition (%) at 10 µM TH9619
T35 construct: gene SLC6A4
Source text: as §1

Vasopressin V1A = target: T36, Vasopressin V1A (Homo sapiens, UniProt P37288); assay: biochemical; parameters: Eurofins SafetyScreen44 panel of binding and enzyme assays, mean per cent inhibition of duplicate; conditions: read-out: Inhibition (%) at 10 µM TH9619
T36 construct: gene AVPR1A
Source text: as §1

MTHFD2 = MTHFD2 (Homo sapiens, UniProt P13995); assay: cocrystal structure with NAD+; enzymatic IC50; CETSA; format: biochemical

MTHFD2L, sequence (Q9H903 whole entry): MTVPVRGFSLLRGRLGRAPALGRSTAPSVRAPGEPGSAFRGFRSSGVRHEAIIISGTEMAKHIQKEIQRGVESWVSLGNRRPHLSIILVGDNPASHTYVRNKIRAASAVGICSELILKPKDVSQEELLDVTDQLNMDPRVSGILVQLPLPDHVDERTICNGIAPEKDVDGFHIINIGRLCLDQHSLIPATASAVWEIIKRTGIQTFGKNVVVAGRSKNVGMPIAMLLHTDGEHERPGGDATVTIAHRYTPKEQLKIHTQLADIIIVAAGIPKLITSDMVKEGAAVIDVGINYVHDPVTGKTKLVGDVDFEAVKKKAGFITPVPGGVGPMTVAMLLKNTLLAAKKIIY
T1 sequence (P11586 2-306 limits assumed): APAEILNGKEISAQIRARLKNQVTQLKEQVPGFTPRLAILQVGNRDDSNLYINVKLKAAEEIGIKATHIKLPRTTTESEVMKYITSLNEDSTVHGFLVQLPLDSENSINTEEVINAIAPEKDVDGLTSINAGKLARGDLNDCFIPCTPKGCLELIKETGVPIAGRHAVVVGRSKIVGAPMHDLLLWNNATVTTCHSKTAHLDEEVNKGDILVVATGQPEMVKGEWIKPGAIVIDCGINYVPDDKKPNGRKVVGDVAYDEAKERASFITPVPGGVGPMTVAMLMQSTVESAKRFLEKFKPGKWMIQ
T19 sequence (P25021 whole entry): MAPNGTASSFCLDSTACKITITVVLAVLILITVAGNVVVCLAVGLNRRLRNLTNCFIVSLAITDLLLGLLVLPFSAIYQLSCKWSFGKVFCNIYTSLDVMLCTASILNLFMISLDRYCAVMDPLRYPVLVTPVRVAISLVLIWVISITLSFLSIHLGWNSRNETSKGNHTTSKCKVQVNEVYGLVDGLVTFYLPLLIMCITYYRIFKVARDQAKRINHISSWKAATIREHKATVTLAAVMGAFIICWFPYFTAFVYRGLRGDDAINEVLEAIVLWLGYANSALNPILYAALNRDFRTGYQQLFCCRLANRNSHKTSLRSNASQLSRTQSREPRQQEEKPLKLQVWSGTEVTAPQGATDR
T26 sequence (P41145 whole entry): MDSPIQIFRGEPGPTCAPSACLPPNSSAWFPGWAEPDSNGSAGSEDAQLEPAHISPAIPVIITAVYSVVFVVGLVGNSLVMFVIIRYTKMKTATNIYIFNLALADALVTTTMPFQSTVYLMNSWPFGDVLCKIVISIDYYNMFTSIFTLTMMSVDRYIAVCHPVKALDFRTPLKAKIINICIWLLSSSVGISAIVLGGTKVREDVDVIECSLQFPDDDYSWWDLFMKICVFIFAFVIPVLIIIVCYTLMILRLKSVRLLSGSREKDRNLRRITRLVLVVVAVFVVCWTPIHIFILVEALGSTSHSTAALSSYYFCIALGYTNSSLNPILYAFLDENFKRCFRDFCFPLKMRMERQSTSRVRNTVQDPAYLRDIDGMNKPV
T6 sequence (P08913 whole entry): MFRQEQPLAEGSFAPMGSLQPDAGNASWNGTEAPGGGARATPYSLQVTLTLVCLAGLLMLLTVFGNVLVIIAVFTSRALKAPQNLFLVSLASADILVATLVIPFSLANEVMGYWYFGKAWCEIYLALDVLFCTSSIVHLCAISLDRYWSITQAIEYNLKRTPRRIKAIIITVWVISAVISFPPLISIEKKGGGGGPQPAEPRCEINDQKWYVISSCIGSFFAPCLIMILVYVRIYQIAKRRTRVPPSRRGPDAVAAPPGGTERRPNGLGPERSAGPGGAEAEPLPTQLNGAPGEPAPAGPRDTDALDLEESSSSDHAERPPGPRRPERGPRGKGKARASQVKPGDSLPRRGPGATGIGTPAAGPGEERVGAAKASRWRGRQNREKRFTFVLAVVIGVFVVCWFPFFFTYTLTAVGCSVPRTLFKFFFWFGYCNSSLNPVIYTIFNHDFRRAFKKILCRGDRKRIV
T18 sequence (P35367 whole entry): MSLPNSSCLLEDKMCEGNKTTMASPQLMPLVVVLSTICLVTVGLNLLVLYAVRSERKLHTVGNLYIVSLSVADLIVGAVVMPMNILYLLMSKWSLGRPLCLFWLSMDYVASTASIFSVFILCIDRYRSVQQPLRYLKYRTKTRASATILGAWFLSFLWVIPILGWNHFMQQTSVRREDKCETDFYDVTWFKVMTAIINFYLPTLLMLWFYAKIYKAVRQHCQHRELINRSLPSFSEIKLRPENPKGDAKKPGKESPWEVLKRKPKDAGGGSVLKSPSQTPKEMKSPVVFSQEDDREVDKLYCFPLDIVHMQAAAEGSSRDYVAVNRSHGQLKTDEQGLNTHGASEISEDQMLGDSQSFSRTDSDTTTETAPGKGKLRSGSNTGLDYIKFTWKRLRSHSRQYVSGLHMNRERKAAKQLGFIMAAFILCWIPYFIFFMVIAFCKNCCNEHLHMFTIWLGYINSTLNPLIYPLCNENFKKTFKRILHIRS
T3 sequence (P08588 whole entry): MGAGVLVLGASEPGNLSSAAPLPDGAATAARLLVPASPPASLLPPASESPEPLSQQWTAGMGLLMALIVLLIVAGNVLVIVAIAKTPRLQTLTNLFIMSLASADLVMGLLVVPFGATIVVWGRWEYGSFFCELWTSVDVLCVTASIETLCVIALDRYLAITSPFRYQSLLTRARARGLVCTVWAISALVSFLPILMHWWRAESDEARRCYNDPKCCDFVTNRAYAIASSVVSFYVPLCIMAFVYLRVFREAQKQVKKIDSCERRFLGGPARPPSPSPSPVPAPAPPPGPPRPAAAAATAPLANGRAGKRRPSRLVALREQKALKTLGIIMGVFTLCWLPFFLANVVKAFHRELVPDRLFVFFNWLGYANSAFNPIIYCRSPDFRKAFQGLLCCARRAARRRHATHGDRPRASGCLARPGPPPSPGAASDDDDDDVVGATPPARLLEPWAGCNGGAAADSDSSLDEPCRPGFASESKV
T22 sequence (P08172 whole entry): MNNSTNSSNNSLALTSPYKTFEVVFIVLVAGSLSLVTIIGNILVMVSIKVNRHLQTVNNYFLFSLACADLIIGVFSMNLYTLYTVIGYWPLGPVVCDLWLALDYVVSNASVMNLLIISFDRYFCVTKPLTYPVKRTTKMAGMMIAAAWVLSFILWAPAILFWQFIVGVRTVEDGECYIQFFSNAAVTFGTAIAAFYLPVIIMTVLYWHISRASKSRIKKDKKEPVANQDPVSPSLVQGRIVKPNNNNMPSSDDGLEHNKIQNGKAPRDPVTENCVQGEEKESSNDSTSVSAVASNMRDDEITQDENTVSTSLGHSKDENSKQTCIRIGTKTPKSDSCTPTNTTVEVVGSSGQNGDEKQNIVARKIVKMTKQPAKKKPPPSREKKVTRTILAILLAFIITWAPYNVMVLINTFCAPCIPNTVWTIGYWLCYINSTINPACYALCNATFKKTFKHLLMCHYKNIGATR
T36 sequence (P37288 whole entry): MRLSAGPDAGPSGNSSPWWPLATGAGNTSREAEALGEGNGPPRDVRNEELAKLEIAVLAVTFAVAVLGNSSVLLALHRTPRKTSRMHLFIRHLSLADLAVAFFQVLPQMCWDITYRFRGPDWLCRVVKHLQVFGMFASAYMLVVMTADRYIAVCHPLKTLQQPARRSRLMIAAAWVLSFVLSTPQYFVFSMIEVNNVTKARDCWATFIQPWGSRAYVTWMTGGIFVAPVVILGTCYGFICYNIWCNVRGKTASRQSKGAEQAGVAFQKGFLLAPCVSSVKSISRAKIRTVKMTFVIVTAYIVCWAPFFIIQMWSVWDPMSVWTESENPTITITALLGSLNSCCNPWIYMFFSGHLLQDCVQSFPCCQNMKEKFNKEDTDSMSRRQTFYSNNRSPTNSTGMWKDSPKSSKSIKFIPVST
T4 sequence (P07550 whole entry): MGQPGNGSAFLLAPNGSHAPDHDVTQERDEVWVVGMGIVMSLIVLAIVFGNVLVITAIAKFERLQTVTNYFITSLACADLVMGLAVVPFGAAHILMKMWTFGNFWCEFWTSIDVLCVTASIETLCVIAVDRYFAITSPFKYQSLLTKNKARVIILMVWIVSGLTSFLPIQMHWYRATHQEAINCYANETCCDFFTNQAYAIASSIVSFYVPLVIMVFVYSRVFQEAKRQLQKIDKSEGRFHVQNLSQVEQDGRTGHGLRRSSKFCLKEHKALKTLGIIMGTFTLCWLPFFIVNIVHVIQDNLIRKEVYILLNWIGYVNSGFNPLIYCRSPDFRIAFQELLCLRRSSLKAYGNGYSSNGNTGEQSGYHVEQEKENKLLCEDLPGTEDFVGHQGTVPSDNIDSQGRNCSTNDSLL
T16 sequence (P25101 whole entry): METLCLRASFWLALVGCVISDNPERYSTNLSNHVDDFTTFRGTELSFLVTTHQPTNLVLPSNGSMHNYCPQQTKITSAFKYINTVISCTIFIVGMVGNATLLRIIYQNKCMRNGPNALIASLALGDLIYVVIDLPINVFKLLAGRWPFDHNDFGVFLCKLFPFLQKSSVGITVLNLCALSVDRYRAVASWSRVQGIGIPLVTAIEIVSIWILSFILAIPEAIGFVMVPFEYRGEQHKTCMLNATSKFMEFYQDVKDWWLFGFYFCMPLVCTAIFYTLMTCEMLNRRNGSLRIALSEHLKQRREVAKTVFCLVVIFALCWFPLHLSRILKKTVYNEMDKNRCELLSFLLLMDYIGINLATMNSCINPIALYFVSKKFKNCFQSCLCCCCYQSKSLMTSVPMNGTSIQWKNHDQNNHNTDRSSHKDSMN
T9 sequence (P34972 whole entry): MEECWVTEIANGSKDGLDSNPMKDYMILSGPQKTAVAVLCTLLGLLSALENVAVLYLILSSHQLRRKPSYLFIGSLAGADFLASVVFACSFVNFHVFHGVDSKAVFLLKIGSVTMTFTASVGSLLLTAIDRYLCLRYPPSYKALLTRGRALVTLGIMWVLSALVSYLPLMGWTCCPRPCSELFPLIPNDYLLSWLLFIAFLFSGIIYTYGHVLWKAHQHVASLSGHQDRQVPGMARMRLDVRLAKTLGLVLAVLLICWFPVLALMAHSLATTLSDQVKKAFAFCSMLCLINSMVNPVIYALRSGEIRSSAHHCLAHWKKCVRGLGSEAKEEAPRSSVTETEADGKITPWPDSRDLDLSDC

Nc1nc2c(c(=O)[nH]1)N1C(=O)N(c3ccc(C(=O)N[C@@H](CCC(=O)O)C(=O)O)cc3)CC1CN2 (stereo partly drawn) [LY345899]
IC50 (MTHFD1-(DC)): 535 nM

Nc1nc(N)c(NC(=O)Nc2ccc(C(=O)N[C@@H](CCC(=O)O)C(=O)O)cc2)c(=O)[nH]1 [TH7299]
IC50 (MTHFD2L): 126 nM

Nc1nc(N)c(CC(=O)Nc2cnc(C(=O)N[C@@H](CCC(=O)O)C(=O)O)c(F)c2)c(=O)[nH]1 [TH9619]
inhibition at 10 µM (Adenosine A2A): 11%
inhibition at 10 µM (Adrenergic ß1): 0%
inhibition at 10 µM (Adrenergic ß2): 1%
inhibition at 10 µM (Adrenergic α1A): 9%
inhibition at 10 µM (Adrenergic α2A): 9%
inhibition at 10 µM (Androgen (Testosterone)): 3%
inhibition at 10 µM (Cannabinoid CB1): 0%
inhibition at 10 µM (Cannabinoid CB2): -3%
inhibition at 10 µM [1]: 7%
inhibition at 10 µM [2]: 21%
inhibition at 10 µM (Cyclooxygenase COX-1): 9%
inhibition at 10 µM (Cyclooxygenase COX-2): 16%
inhibition at 10 µM (Dopamine D1): 5%
inhibition at 10 µM (Dopamine D2S): 1%
inhibition at 10 µM (Endothelin ETA): -7%
inhibition at 10 µM (Glucocorticoid): 3%
inhibition at 10 µM (Histamine H1): 7%
inhibition at 10 µM (Histamine H2): -6%
inhibition at 10 µM (Monoamine Oxidase MAO-A): 6%
inhibition at 10 µM (Muscarinic M1): -7%
inhibition at 10 µM (Muscarinic M2): -29%
inhibition at 10 µM (Muscarinic M3): -2%
inhibition at 10 µM [3]: 2%
inhibition at 10 µM (Opiate µ (OP3, MOP)): -10%
inhibition at 10 µM (Opiate κ (OP2, KOP)): 5%
inhibition at 10 µM (Phosphodiesterase PDE3A): -3%
inhibition at 10 µM (Phosphodiesterase PDE4D2): -1%
inhibition at 10 µM [4]: 5%
inhibition at 10 µM [5]: 1%
inhibition at 10 µM [6]: 0%
inhibition at 10 µM [7]: -8%
inhibition at 10 µM [8]: 1%
inhibition at 10 µM [9]: -4%
inhibition at 10 µM [10]: -7%
inhibition at 10 µM [11]: -12%
inhibition at 10 µM [12]: 5%
inhibition at 10 µM (Vasopressin V1A): -15%

TH9028
IC50 (MTHFD2L; read-out: MTHFD2L IC50): 27 nM
IC50 (MTHFD1-(DC)): 0.5 nM
IC50 (MTHFD2): 11 nM
